Assay results taken from patent US8871753B2, “Macrocyclic compounds and their use as kinase inhibitors” (Incyte Corporation, priority 2008, dated 2014).
Where a name gives a salt, the structure may show the parent alone. Read-outs that look alike come from different tables or passages of the source.

Assays:
Assay type in all cases: biochemical
[1] = target: T1, human JAK3 (a.a. 781-1124) (Homo sapiens, UniProt P52333); test: In vitro JAK kinase assay (HTRF, phosphorylation of a biotinylated peptide), JAK3
T1 construct: JAK3 (a.a. 781-1124); His tag (N); made in house; host or cells: insect cells (baculovirus)
In short: (§1)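 Kinase reactions ran at room temperature for 1 h with ATP matched per isoform (JAK1 90 μM, JAK2 30 μM, JAK3 3 μM). After an EDTA stop, the phosphorylated biotin-peptide was read by HTRF using Eu-Py20 and SA-APC after 40 min binding.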

[2] = target: T2, human JAK1 (a.a. 837-1142) (Homo sapiens, UniProt P23458); test: In vitro JAK kinase assay (HTRF, phosphorylation of a biotinylated peptide), JAK1; settings: read-out: JAK1 IC50
T2 construct: human JAK1 (a.a. 837-1142); His tag (N); made in house; host or cells: insect cells (baculovirus)
In short: as §1

[3] = target: T3, human JAK2 (a.a. 828-1132) (Homo sapiens, UniProt O60674); test: In vitro JAK kinase assay (HTRF, phosphorylation of a biotinylated peptide), JAK2
T3 construct: JAK2 (a.a. 828-1132); His tag (N); made in house; host or cells: insect cells (baculovirus)
In short: as §1

[4] = target: T4, Recombinant Human Anaplastic Lymphoma Kinase (Homo sapiens, UniProt Q9UM73); test: ALK HTRF kinase assay
T4 construct: purchased Invitrogen, Carlsbad, Calif
In short: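 Readout was HTRF between a Eu-W1024 anti-phosphotyrosine antibody and streptavidin-APC bound to biotinylated peptide phosphorylated by recombinant human ALK. IC50 values came from a four-parameter logistic fit.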

[5] = target: TYK2 (Homo sapiens, UniProt P29597); test: TYK2 kinase inhibition (Table A1)
[6] = compound at a concentration of 500 nM or 1 mM (not specified), cells shown as percentage
[7] = Table B1, cells without percent sign
[8] = method AA1 (3 μM ATP) or AA2 (1000 μM ATP), not stated per value
[9] = method AA1 (90 μM ATP) or AA2 (1000 μM ATP), not stated per value
[10] = method AA1 (30 μM ATP) or AA2 (1000 μM ATP), not stated per value
[11] = compound at 500 nM or 1 mM, 90 μM ATP

T3 sequence (O60674 828-1132): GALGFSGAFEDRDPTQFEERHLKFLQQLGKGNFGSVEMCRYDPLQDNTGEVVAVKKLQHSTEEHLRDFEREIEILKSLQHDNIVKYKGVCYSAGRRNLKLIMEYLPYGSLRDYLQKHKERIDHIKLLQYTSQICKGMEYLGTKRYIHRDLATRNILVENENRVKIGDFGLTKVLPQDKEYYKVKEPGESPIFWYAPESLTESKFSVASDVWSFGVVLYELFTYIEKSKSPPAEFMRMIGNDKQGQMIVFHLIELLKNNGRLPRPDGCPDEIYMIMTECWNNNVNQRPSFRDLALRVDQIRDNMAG
T2 sequence (P23458 849-1154): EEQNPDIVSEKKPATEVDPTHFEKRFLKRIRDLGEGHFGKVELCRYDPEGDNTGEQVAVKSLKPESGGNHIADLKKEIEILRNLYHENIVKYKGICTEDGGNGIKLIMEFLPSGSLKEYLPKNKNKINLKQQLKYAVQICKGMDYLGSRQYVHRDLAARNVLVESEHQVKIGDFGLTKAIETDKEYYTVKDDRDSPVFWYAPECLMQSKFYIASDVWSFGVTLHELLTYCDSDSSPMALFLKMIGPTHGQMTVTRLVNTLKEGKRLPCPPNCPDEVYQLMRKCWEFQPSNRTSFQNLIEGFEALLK
T1 sequence (P52333 781-1124): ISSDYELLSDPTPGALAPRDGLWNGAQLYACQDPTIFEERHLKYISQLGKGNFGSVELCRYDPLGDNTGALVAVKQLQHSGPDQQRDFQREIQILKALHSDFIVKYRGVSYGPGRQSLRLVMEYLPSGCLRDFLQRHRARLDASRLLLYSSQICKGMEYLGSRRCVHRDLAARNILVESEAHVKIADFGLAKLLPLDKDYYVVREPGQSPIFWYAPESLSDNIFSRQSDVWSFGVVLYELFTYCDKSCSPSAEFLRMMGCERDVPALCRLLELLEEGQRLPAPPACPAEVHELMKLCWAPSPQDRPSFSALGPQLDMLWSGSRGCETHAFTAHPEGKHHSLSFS
TYK2, sequence (P29597 whole entry): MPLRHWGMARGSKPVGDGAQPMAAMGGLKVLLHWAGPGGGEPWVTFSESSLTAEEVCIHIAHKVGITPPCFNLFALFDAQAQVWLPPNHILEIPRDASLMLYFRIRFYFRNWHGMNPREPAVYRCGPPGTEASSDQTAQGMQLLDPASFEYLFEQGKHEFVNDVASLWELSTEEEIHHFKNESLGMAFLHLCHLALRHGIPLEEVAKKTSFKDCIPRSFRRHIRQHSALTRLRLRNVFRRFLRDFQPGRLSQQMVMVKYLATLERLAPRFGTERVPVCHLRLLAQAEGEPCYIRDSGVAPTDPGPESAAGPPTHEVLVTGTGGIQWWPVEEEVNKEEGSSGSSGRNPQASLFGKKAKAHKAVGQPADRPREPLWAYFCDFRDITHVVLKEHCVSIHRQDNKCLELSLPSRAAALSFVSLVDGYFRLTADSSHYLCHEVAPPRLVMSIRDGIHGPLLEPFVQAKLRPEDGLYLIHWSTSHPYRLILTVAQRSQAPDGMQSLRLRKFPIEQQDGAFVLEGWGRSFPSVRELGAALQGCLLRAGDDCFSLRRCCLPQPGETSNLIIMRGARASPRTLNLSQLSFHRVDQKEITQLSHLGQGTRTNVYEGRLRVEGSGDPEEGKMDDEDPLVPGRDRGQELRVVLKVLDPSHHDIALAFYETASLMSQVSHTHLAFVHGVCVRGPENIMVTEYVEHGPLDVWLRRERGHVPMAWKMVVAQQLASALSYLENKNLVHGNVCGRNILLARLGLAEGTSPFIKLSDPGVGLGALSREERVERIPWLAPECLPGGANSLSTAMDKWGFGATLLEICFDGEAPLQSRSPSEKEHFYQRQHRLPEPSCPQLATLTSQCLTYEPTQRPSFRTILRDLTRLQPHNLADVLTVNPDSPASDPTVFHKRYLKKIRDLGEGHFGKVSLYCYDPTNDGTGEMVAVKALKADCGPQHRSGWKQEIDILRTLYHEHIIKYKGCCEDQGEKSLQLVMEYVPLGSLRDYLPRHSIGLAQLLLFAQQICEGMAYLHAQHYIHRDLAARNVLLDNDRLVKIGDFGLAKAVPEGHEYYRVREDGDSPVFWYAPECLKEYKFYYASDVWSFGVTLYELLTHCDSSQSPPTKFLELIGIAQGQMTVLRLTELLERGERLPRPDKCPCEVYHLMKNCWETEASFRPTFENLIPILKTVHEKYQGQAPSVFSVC
T4 sequence (Q9UM73 19-1620): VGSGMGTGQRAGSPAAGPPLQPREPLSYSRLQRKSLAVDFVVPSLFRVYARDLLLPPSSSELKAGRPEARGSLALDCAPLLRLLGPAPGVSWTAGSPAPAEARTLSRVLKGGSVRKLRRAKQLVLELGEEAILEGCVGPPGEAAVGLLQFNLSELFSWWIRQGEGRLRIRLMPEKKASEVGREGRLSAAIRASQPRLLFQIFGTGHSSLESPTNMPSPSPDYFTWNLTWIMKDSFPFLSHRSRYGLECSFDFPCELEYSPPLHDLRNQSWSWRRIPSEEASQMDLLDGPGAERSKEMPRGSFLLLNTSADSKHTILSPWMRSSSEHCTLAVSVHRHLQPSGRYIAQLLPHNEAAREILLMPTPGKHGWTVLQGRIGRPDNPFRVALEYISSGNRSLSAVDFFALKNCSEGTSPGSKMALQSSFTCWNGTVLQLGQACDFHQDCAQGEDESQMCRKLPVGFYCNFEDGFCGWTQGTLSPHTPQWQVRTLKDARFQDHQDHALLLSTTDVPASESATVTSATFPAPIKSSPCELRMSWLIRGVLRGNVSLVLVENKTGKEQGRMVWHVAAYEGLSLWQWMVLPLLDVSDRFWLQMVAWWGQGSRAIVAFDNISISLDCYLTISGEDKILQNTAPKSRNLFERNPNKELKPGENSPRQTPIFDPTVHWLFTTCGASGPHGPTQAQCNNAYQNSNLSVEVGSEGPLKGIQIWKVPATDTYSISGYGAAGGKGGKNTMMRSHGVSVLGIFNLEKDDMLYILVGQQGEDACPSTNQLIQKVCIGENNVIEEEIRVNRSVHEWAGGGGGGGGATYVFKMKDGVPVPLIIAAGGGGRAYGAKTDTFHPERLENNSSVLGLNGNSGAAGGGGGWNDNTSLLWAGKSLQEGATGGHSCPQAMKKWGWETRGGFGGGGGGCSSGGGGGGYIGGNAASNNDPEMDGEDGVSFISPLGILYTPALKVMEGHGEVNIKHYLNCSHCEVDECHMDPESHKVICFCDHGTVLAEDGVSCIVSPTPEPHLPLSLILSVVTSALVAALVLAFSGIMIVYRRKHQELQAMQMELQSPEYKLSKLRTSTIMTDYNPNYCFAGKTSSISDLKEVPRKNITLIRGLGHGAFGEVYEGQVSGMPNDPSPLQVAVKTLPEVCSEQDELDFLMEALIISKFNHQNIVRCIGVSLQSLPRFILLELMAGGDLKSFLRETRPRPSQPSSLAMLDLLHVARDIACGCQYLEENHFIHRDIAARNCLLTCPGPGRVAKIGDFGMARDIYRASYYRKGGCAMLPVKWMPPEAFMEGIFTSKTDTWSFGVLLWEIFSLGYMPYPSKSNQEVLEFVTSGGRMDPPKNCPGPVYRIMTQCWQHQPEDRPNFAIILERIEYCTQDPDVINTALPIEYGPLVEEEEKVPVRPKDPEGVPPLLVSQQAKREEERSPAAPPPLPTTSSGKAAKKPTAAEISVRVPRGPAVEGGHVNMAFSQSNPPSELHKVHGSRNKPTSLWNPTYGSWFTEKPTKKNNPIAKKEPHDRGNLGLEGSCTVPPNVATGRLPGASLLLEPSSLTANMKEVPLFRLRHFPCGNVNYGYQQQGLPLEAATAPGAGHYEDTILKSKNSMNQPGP

Structure (SMILES) | IC50 ([1]; Table B1) [nM] | IC50 ([2]; Table B1) [nM] | IC50 ([3]; Table B1) [nM] | ALK % of inhibition at a concentration of 500 nM or 1 mM [4, 6] [%] | IC50 ([5]; Table B1) [nM] | IC50 [1, 8] [nM] | IC50 [2, 9] [nM] | IC50 [3, 10] [nM] | ALK % of inhibition at a concentration of 500 nM or 1 mM [4, 11] [%] | IC50 [5] [nM] | other results
O=C(Nc1ccccc1)Nc1cc2cc(c1)OCCSc1cccc(c1)Nc1nc(ncc1Cl)N2 [Example D65, N-[6-Chloro-17-oxa-14-thia-2,4,8,24-tetraazatetracyclo[16.3.1.1(3,7).1(9,13)]tetracosa-1(22),3(24),4,6,9(23),10,12,18,20-nonaen-20-yl]-N′-phenylurea trifluoroacetate] |  |  |  |  |  |  |  |  |  |  | IC50 ([1]; Table D1): 16 nM; IC50 ([2]; Table D1): 18 nM; IC50 ([3]; Table D1): 5.1 nM; IC50 ([4]; Table D1, 90 μM ATP): > 1000 nM; IC50 ([5]; Table D1): 6.4 nM
O=C(Nc1cc2cc(c1)OCCSc1cccc(c1)Nc1nc(ncc1Cl)N2)c1ccco1 [Example D62, N-[6-Chloro-17-oxa-14-thia-2,4,8,24-tetraazatetracyclo[16.3.1.1(3,7).1(9,13)]tetracosa-1(22),3(24),4,6,9(23),10,12,18,20-nonaen-20-yl]-2-furamide trifluoroacetate] |  |  |  |  |  |  |  |  |  |  | IC50 ([1]; Table D1): 18 nM; IC50 ([2]; Table D1): 7.3 nM; IC50 ([3]; Table D1): 2.1 nM; IC50 ([4]; Table D1, 90 μM ATP): 380 nM; IC50 ([5]; Table D1): 6.1 nM
Cc1nc(C)c(S(=O)(=O)N2CCC(CC(=O)Nc3ccc4cc3CCc3cncc(c3)Nc3ncc(Cl)c(n3)N4)CC2)s1 [Example A232, N-[6-Chloro-2,4,8,18,22-pentaazatetracyclo[14.3.1.1(3,7).1(9,13)]docosa-1(20),3(22),4,6,9(21),10,12,16,18-nonaen-12-yl]-2-{1-[(2,4-dimethyl-1,3-thiazol-5-yl)sulfonyl]piperidin-4-yl}acetamide bis(trifluoroacetate)] |  |  |  |  |  | > 400 | 12 | 94 | 43 | 326 | 
O=C(CC1CCN(C(=O)c2cnccn2)CC1)Nc1ccc2cc1CCc1cccc(c1)Nc1ncc(Cl)c(n1)N2 [Example A87, N-[6-Chloro-2,4,8,22-tetraazatetracyclo[14.3.1.1(3,7).1(9,13)]docosa-1(20),3(22),4,6,9(21),10,12,16,18-nonaen-12-yl]-2-[1-(pyrazin-2-ylcarbonyl)piperidin-4-yl]acetamide bis(trifluoroacetate)] |  |  |  |  |  | 56 | 14 | 9.8 | 31 | 12 | 
NS(=O)(=O)N1CCC(CC(=O)Nc2ccc3cc2CCc2cccc(c2)Nc2ncc(Cl)c(n2)N3)CC1 [Example A75, 2-[1-(Aminosulfonyl)piperidin-4-yl]-N-[6-chloro-2,4,8,22-tetraazatetracyclo[14.3.1.1(3,7).1(9,13)]docosa-1(20),3(22),4,6,9(21),10,12,16,18-nonaen-12-yl]acetamide trifluoroacetate] |  |  |  |  |  | 3.2 | 0.2 | 0.2 | 51 | 0.3 | 
N#Cc1ccc(C(=O)N2CCC(CC(=O)Nc3ccc4cc3CCc3cccc(c3)Nc3ncc(Cl)c(n3)N4)CC2)cc1 [Example A186, N-[6-Chloro-2,4,8,22-tetraazatetracyclo[14.3.1.1(3,7).1(9,13)]docosa-1(20),3(22),4,6,9(21),10,12,16,18-nonaen-12-yl]-2-[1-(4-cyanobenzoyl)piperidin-4-yl]acetamide trifluoroacetate] |  |  |  |  |  | > 200 | 58 | 185 | 38 | > 200 | 
N#Cc1ccccc1S(=O)(=O)N1CCC(CC(=O)Nc2ccc3cc2CCc2cncc(c2)Nc2ncc(Cl)c(n2)N3)CC1 [Example A198, N-[6-Chloro-2,4,8,18,22-pentaazatetracyclo[14.3.1.1(3,7).1(9,13)]docosa-1(20),3(22),4,6,9(21),10,12,16,18-nonaen-12-yl]-2-{1-[(2-cyanophenyl)sulfonyl]piperidin-4-yl}acetamide bis(trifluoroacetate)] |  |  |  |  |  | > 200 | 0.4 | 50 | 56 | 50 | 
CC(C)c1cc(C(=O)N2CCC(CC(=O)Nc3ccc4cc3CCc3cncc(c3)Nc3ncc(Cl)c(n3)N4)CC2)no1 [Example A214, N-[6-Chloro-2,4,8,18,22-pentaazatetracyclo[14.3.1.1(3,7).1(9,13)]docosa-1(20),3(22),4,6,9(21),10,12,16,18-nonaen-12-yl]-2-{1-[(5-isopropylisoxazol-3-yl)carbonyl]piperidin-4-yl}acetamide bis(trifluoroacetate)] |  |  |  |  |  | > 200 | 50 | > 200 | 15 | > 200 | 
CC(C)N1CCC(CC(=O)Nc2ccc3cc2CCc2cncc(c2)Nc2ncc(Cl)c(n2)N3)CC1 [Example A140, N-[6-Chloro-2,4,8,18,22-pentaazatetracyclo[14.3.1.1(3,7).1(9,13)]docosa-1(20),3(22),4,6,9(21),10,12,16,18-nonaen-12-yl]-2-(1-isopropylpiperidin-4-yl)acetamide tris(trifluoroacetate)] |  |  |  |  |  | 117 | 38 | 46 | 18 | 68 | 

Further lines, with some results ahead:

IC50 ([1]; Table B1) [nM] | IC50 ([2]; Table B1) [nM] | IC50 ([3]; Table B1) [nM] | ALK % of inhibition at a concentration of 500 nM or 1 mM [4, 6] [%] | IC50 ([5]; Table B1) [nM] | IC50 [1, 8] [nM] | IC50 [2, 9] [nM] | IC50 [3, 10] [nM] | ALK % of inhibition at a concentration of 500 nM or 1 mM [4, 11] [%] | IC50 [5] [nM] | Structure (SMILES) | other results
> 1000 | 141 | 165 | 30 | 550 |  |  |  |  |  | CN(C(=O)Nc1ccc2cc1CCc1cccc(c1)Nc1ncc(Cl)c(n1)N2)[C@H]1CCN(Cc2ccccc2)C1 [Example B283, N-[(3S)-1-Benzylpyrrolidin-3-yl]-N′-[6-chloro-2,4,8,22-tetraazatetracyclo[14.3.1.1(3,7).1(9,13)]docosa-1(20),3(22),4,6,9(21),10,12,16,18-nonaen-12-yl]-N-methylurea] | 
> 400 | 16 | 160 | 77 | 27 |  |  |  |  |  | N#Cc1ccccc1N1CCN(C(=O)Nc2ccc3cc2CCc2cncc(c2)Nc2ncc(Cl)c(n2)N3)CC1 [Example B300, N-[6-Chloro-2,4,8,18,22-pentaazatetracyclo[14.3.1.1(3,7).1(9,13)]docosa-1(20),3(22),4,6,9(21),10,12,16,18-nonaen-12-yl]-4-(2-cyanophenyl)piperazine-1-carboxamide tris(trifluoroacetate)] | 
37 | 2.5 | 1.5 |  | 6.6 |  |  |  |  |  | O=S(=O)(Cc1ccccc1)Nc1ccc2cc1CCc1cccc(c1)Nc1ncc(Cl)c(n1)N2 [Example B147, N-[6-Chloro-2,4,8,22-tetraazatetracyclo[14.3.1.1(3,7).1(9,13)]docosa-1(20), 3(22),4,6,9(21),10,12,16,18-nonaen-12-yl]-1-phenylmethanesulfonamide trifluoroacetate] | IC50 [4, 7]: 1800 nM
> 10000 | 14 | 316 | 23 | 575 |  |  |  |  |  | Cn1ccc(C(=O)N2CC[C@H](NC(=O)Nc3ccc4cc3CCc3cncc(c3)Nc3ncc(Cl)c(n3)N4)C2)n1 [Example B272, N-[6-Chloro-2,4,8,18,22-pentaazatetracyclo[14.3.1.1(3,7).1(9,13)]docosa-1(20),3(22),4,6,9(21),10,12,16,18-nonaen-12-yl]-N′-{(3S)-1-[(1-methyl-1H-pyrazol-3-yl)carbonyl]pyrrolidin-3-yl}urea bis(trifluoroacetate)] | 
4.2 | 0.34 | 0.2 |  | 0.5 |  |  |  |  |  | Cn1cnc(S(=O)(=O)Nc2ccc3cc2CCc2cccc(c2)Nc2ncc(Cl)c(n2)N3)c1 [Example B144, N-[6-Chloro-2,4,8,22-tetraazatetracyclo[14.3.1.1(3,7).1(9,13)]docosa-1(20), 3(22),4,6,9(21),10,12,16,18-nonaen-12-yl]-1-methyl-1H-imidazole-4-sulfonamide bis(trifluoroacetate)] | IC50 [4, 7]: 600 nM
> 10000 | 8.7 | 440 | 10 | 847 |  |  |  |  |  | O=C(Nc1ccc2cc1CCc1cncc(c1)Nc1ncc(Cl)c(n1)N2)N[C@H]1CCN(C(=O)c2ccno2)C1 [Example B271, N-[6-Chloro-2,4,8,18,22-pentaazatetracyclo[14.3.1.1(3,7).1(9,13)]docosa-1(20),3(22),4,6,9(21),10,12,16,18-nonaen-12-yl]-N′-[(3S)-1-(isoxazol-5-ylcarbonyl)pyrrolidin-3-yl]urea bis(trifluoroacetate)] | 
102 | 12 | 6.4 | 4.6 | 2.4 |  |  |  |  |  | O=S(=O)(Nc1ccc2cc1CCc1cccc(c1)Nc1ncc(Cl)c(n1)N2)c1cccc2cccnc12 [Example B160, N-[6-Chloro-2,4,8,22-tetraazatetracyclo[14.3.1.1(3,7).1(9,13)]docosa-1(20), 3(22),4,6,9(21),10,12,16,18-nonaen-12-yl]quinoline-8-sulfonamide bis(trifluoroacetate)] | 
